Literature values as cited in patent US20210368800A1, “Quickly, easily, and economically creating and maintaining a low bio-load on surfaces that may be large and/or of complex contour and finish” (priority 2020, published 2021).

What was measured:
[1] = system: norovirus; conditions: at 50 ppm; electrolytically generated hypochlorous acid
[2] = system: coronavirus 0C43

## OCl [hypochlorous acid, Hypochlorous Acid]
[1]
  time to kill norovirus: less than one
[2]
  effective in eliminating coronavirus 0C43: more than 99.999%
